A word on the melting point: it is the temperature of the solid-liquid transition.

The values that follow come from patent US8063039B2, “3-aminopyrrolidone derivatives” (Newron Pharmaceuticals S.p.A., priority 2003, dated 2011).

Structures can show the parent of a compound that is named as a salt.

Consider `O=C1NCC[C@@H]1NCc1ccc(OCc2cccc(F)c2)cc1` (as salt: sulfonic acid salt) [Example 1, (S)-3-[4-(3-Fluorobenzyloxy)-benzylamino]-pyrrolidin-2-one], for which the melting point was in the range of 140.5 to 143.5 °C.
